# From US9145391B2, “Bipyridylaminopyridines as Syk inhibitors” (Merck Sharp & Dohme Corp., priority 2011, dated 2015)
# Biological target: recombinant human GST-Syk (Homo sapiens (Human), UniProt P43405)
# Test: Homogeneous Time-Resolved Fluorescence (HTRF) assay for the recombinant human Syk enzyme
# Type: biochemical
# Details: recombinant human GST-Syk 5 pM, ATP 25 μM, read-out: rhSyk IC50
# Procedure, shortened: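 HTRF read-out of phosphorylation of a biotinylated Syk-site peptide (250 nM final) by a GST-tagged human Syk fusion. Reaction initiated with ATP at 25 μM final plus 5 mM magnesium final. Compound potency taken from inhibition of human Syk activity.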
row,IC50 [nM],Compound
1,22,Cc1cc(Nc2cc(C(F)(F)F)ccn2)nc(-c2ccc(NC3CCN(C(=O)c4[nH]c5ccccc5c4C)CC3)nc2)c1 [Example 4-6]
2,14,CC(=O)NC1CCCN(c2ccc(-c3cc(C)cc(Nc4cc(C(F)(F)F)ccn4)n3)cn2)C1 (centres unmarked) [Example 4-18]
3,3,Cc1cc(Nc2cc(C(F)(F)F)ccn2)nc(-c2ccc(NC3CCN(C(=O)c4cccc(C(N)=O)c4)CC3)nc2)c1 [Example 4-27]
4,< 0.5,Cc1cc(Nc2cc(C(F)(F)F)ccn2)nc(-c2ccc(NC3CCN(C(=O)c4ccc5cccnc5n4)CC3)nc2)c1 [Example 4-44]
5,10,Cc1cc(Nc2cc(C(F)(F)F)ccn2)nc(-c2ccc(NC3CCN(C(=O)c4cccc(-n5cccn5)c4)CC3)nc2)c1 [Example 4-36]
6,65,"CCCCOC(=O)[C@H]1CC[C@H](C(C)(O)c2ccc(-c3cc(C)cc(Nc4cc(C(F)F)ccn4)n3)cn2)CC1 (single isomer, unassigned) [Example 19-4, butyl trans-4-[(1R or 1S)-1-(6-{[4-(difluoromethyl)pyridin-2-yl]amino}-4-methyl-2,3′-bipyridin-6′-yl)-1-hydroxyethyl] cyclohexanecarboxylate]"
7,54,Cc1cc(Nc2cc(C(F)(F)F)ccn2)nc(-c2ccc(NC3CCN(C(=O)c4ccnn4-c4ccccc4)CC3)nc2)c1 [Example 4-32]
8,4,Cc1cc(Nc2cc(C(F)(F)F)ccn2)nc(-c2ccc(NC3CCN(C(=O)c4cnc5ccccc5c4)CC3)nc2)c1 [Example 4-92]
9,4,Cc1cc(Nc2cc(C(F)(F)F)ccn2)nc(-c2ccc(NC3CCN(C(=O)c4ccc(C#N)cc4)CC3)nc2)c1 [Example 4-90]
10,15,"CC(=O)OCCOC(=O)[C@H]1CC[C@H](C(C)(O)c2ccc(-c3cc(C)cc(Nc4cc(C(F)F)ccn4)n3)cn2)CC1 (single isomer, unassigned) [Example 21-6, 2-(acetyloxy)ethyl trans-4-[(1R or 1S)-1-(6-{[4-(difluoromethyl)pyridin-2-yl]amino}-4-methyl-2,3′-bipyridin-6′-yl)-1-hydroxyethyl] cyclohexanecarboxylate]"
11,12,Cc1cc(Nc2cc(C(F)(F)F)ccn2)nc(-c2ccc(NC3CCN(C(=O)c4cccc(-c5ccncc5)c4)CC3)nc2)c1 [Example 4-19]
12,13,Cc1cc(Nc2cc(C(F)(F)F)ccn2)nc(-c2ccc(NC3CCN(C(=O)Cc4cccc(Cl)c4)CC3)nc2)c1 [Example 4-107]
13,26,Cc1cc(Nc2cc(C(F)(F)F)ccn2)nc(-c2ccc(NC3CCN(C(=O)c4cc5ccccc5n4C)CC3)nc2)c1 [Example 4-113]
14,11,Cc1cc(Nc2cc(C(F)(F)F)ccn2)nc(-c2ccc(NC3CCN(C(=O)c4cn(C)c5ccccc45)CC3)nc2)c1 [Example 4-99]
15,19,Cc1cc(Nc2cc(C(F)(F)F)ccn2)nc(-c2ccc(NC3CCN(C(=O)c4cccc5c6c([nH]c45)CCCC6)CC3)nc2)c1 [Example 4-119]
16,5,COc1ccc(C(=O)N2CCC(Nc3ccc(-c4cc(C)cc(Nc5cc(C(F)(F)F)ccn5)n4)cn3)CC2)cc1 [Example 4-93]
17,4,Cc1cc(Nc2cc(C(F)(F)F)ccn2)nc(-c2ccc(NC3CCN(C(=O)c4cccc(S(C)(=O)=O)c4)CC3)nc2)c1 [Example 4-46]
18,57,Cc1cc(Nc2cc(C(F)(F)F)ccn2)nc(-c2ccc(NC3CCN(C(=O)Cc4cccc(Oc5ccccc5)c4)CC3)nc2)c1 [Example 4-74]
19,2,Cc1cc(Nc2cc(C(F)(F)F)ccn2)nc(-c2ccc(NC3CCN(C(=O)Cc4ccccn4)CC3)nc2)c1 [Example 4-68]
20,7,Cc1cc(Nc2cc(C(F)(F)F)ccn2)nc(-c2ccc(NC3CCC(C(=O)O)CC3)nc2)c1 (centres unmarked) [Example 2-25]
21,3,"Cc1cc(Nc2cc(C(F)(F)F)ccn2)nc(-c2ccc(OC[C@H]3CC[C@H](C(=O)O)CC3)nc2)c1 [Example 3, trans-4-{[(4-Methyl-6-{[4-(trifluoromethyl)pyridin-2-yl]amino}-2,3′-bipyridin-6′-yl)oxy]methyl}cyclohexanecarboxylic acid]"
22,7,Cc1cc(Nc2cc(C(F)(F)F)ccn2)nc(-c2ccc(NC3CCN(C(=O)c4cccc5cc(O)ccc45)CC3)nc2)c1 [Example 4-39]
23,3,Cc1cc(Nc2cc(C(F)(F)F)ccn2)nc(-c2ccc(NC3CCN(C(=O)c4cccc(-c5ccccc5)c4)CC3)nc2)c1 [Example 4-122]

row,IC50 [nM],Compound
1,138,Cc1cc(Nc2cc(C(F)(F)F)ccn2)nc(-c2ccc(NC3CCN(C(=O)Cc4ccc(-c5ccccc5)cc4)CC3)nc2)c1 [Example 4-69]
2,40,Cc1cc(Nc2cc(C(F)(F)F)ccn2)nc(-c2ccc(NC3CCN(C(=O)c4ccccc4N(C)C)CC3)nc2)c1 [Example 4-38]
3,19,Cc1cc(Nc2cc(C(F)(F)F)ccn2)nc(-c2ccc(NC3CCN(C(=O)c4ccc5ccccc5c4)CC3)nc2)c1 [Example 4-49]
4,6,COc1cccc(CC(=O)N2CCC(Nc3ccc(-c4cc(C)cc(Nc5cc(C(F)(F)F)ccn5)n4)cn3)CC2)c1 [Example 4-110]
5,2.3,"Cc1cc(Nc2cc(C(F)F)ccn2)nc(-c2ccc(C(C)(O)[C@H]3CC[C@H](C(=O)OCCN(C)C)CC3)nc2)c1 (single isomer, unassigned) [Example 19-20, 2-(dimethylamino)ethyl trans-4-[(1R or 1S)-1-(6-{[4-difluoromethyl)pyridin-2-yl]amino}-4-methyl-2,3′-bipyridin-6′-yl)-1-hydroxyethyl] cyclohexanecarboxylate]"
6,150,"Cc1cc(Nc2cc(C(F)F)ccn2)nc(-c2ccc(C(C)(O)[C@H]3CC[C@H](C(=O)OCC(C)(C)C)CC3)nc2)c1 (single isomer, unassigned) [Example 19-8, 2,2-dimethylpropyl trans-4-[(1R or 1S)-1-(6-{[4-(difluoromethyl)pyridin-2-yl]amino}-4-methyl-2,3′-bipyridin-6′-yl)-1-hydroxyethyl] cyclohexanecarboxylate]"
7,7,Cc1cc(Nc2cc(C(F)(F)F)ccn2)nc(-c2ccc(NC3CCN(C(=O)c4ccc5cc[nH]c5c4)CC3)nc2)c1 [Example 4-15]
8,89,Cc1cc(Nc2cc(C(F)(F)F)ccn2)nc(-c2ccc(NC3CCN(C(=O)c4cc5cccc(C)c5nc4C)CC3)nc2)c1 [Example 4-21]
9,69,"CCOC(=O)OC(C)OC(=O)[C@H]1CC[C@H](C(C)(O)c2ccc(-c3cc(C)cc(Nc4cc(C(F)F)ccn4)n3)cn2)CC1 (single isomer, unassigned) [Example 20-2, 1-[(ethoxycarbonyl)oxy]ethyl trans-4-[(1R or 1S)-1-(6-{[4-(difluoromethyl)pyridin-2-yl]amino}-4-methyl-2,3′-bipyridin-6′-yl)-1-hydroxyethyl] cyclohexanecarboxylate]"
10,2,Cc1cc(Nc2cc(C(F)(F)F)ccn2)nc(-c2ccc(NC3CCN(C(=O)c4cccnc4)CC3)nc2)c1 [Example 4-94]
11,27,Cc1cc(Nc2cc(C(F)(F)F)ccn2)nc(-c2ccc(NC3CCN(C(=O)c4cn[nH]c4-c4ccccc4)CC3)nc2)c1 [Example 4-28]
12,33,Cc1cc(Nc2cc(C(F)(F)F)ccn2)nc(-c2ccc(N3CCC3C(=O)O)nc2)c1 (centres unmarked) [Example 2-18]
13,100,"Cc1cc(Nc2cc(C(F)F)ccn2)nc(-c2ccc(C(C)(O)[C@H]3CC[C@H](C(=O)OC(C)OC(=O)OC(C)C)CC3)nc2)c1 (single isomer, unassigned) [Example 20-7, 1-{[(propan-2-yloxy)carbonyl]oxy}ethyl trans-4-[(1R or 1S)-1-{6-{[4-(difluoromethyl)pyridin-2-yl]amino}-4-methyl-2,3′-bipyridin-6′-yl)-1-hydroxyethyl] cyclohexanecarboxylate]"
14,1,Cc1cc(Nc2cc(C(F)(F)F)ccn2)nc(-c2ccc(NC3CCN(C(=O)Cc4cccnc4)CC3)nc2)c1 [Example 4-77]
15,6,Cc1cc(Nc2cc(C(F)(F)F)ccn2)nc(-c2ccc(NC3CCN(C(=O)c4cccc5c4NC(=O)C5)CC3)nc2)c1 [Example 447]
16,39,Cc1cc(Nc2cc(C(F)(F)F)ccn2)nc(-c2ccc(N3CCCC3C(=O)O)nc2)c1 (centres unmarked) [Example 2-17]
17,4,Cc1cc(Nc2cc(C(F)(F)F)ccn2)nc(-c2ccc(NC3CCN(C(=O)Cc4cccc5ncccc45)CC3)nc2)c1 [Example 4-12]
18,14,Cc1cc(Nc2cc(C(F)(F)F)ccn2)nc(-c2ccc(N3CCOCC3)nc2)c1 [Example 2-30]
19,100,"CCCCCOC(=O)[C@H]1CC[C@H](C(C)(O)c2ccc(-c3cc(C)cc(Nc4cc(C(F)F)ccn4)n3)cn2)CC1 (single isomer, unassigned) [Example 19-7, pentyl trans-4-[(1R or 1S)-1-(6-{[4-(difluoromethyl)pyridin-2-yl]amino}-4-methyl-2,3′-bipyridin-6′-yl)-1-hydroxyethyl] cyclohexanecarboxylate]"
20,53,Cc1cc(Nc2cc(C(F)(F)F)ccn2)nc(-c2ccc(NC3CCN(C(=O)Cc4cccc5ccccc45)CC3)nc2)c1 [Example 4-52]
21,1,Cc1cc(Nc2cc(C(F)(F)F)ccn2)nc(-c2ccc(NC3CCN(C(=O)Cc4ccc5ccn(C)c5c4)CC3)nc2)c1 [Example 4-2]
22,2,"Cc1cc(Nc2cc(C(F)(F)F)ccn2)nc(-c2ccc(NC3CCC(C(=O)O)C(C)(C)C3)nc2)c1 (single isomer, unassigned) [Example 3-5]"

row,Compound,IC50 [nM]
1,Cc1cc(Nc2cc(C(F)(F)F)ccn2)nc(-c2ccc(C3(O)CCN(C(=O)OC(C)(C)C)CC3)nc2)c1 [Example 1-5],406
2,"COC(=O)C1CCC(O)(c2ccc(-c3cc(C)cc(Nc4cc(C(F)(F)F)ccn4)n3)cn2)CC1(C)C (single isomer, unassigned) [Example 1-9]",100
3,CCCCOC(=O)C1CCC(C(C)(O)c2ccc(-c3cc(C)cc(Nc4cc(C(F)(F)F)ccn4)n3)cn2)CC1 (centres unmarked) [Example 1-15],19
4,Cc1ccnc(Nc2cc(C)cc(-c3ccc(F)nc3)n2)c1 [Example 1-2],111
5,COC(=O)C1CCC(C(O)(c2ccc(-c3cc(C)cc(Nc4cc(C(F)(F)F)ccn4)n3)cn2)C2CC2)CC1 (centres unmarked) [Example 1-17],16
